Measured values taken from US20210177812A1, “METHODS OF SUPPRESSING MYELOID-DERIVED SUPPRESSOR CELLS IN PATIENTS” (MediciNova, Inc., priority 2018, published 2021).
Entries after “also recorded” stand apart in the source; their conditions may differ. Like-named read-outs stand apart in the source and are kept apart here.

Experiments:
[1] = test system: mouse model of glioma GL261; assay: Flow cytometry of MDSCs and T-cells in tumor, blood, spleen and bone marrow, mouse model of glioma GL261; type: in vivo; details: day 19; for monocytic MDSCs (M-MDSCs) in the tumor: ibudilast dosed 50 mg/kg i.p. daily from day 5 (AV1013 dose not given), vs vehicle
Procedure: (§1) Ibudilast was tested in vivo using the mouse model of glioma GL261. Cells were implanted on day 0 and then a 5-day engrafiment period was used to ensure that the treatment being tested was performing by inhibiting tumor growth and not engraftment. After 5 days the mice were intraperitoneally injected daily with ibudilast at 50 mg/kg in a vehicle consisting of PEG 400 and (2-hydroxypropyl)-p-cyclodextrin to enhance solubility with low toxicity or alternatively mice were treated with AV1013. At day 19 post injection, 3 mice from each group (ibudilast, AV1013 or vehicle) were sacrificed for flow cytometry analysis of MDSCs, T-cells, and NK cells in the tumor, blood, spleen, and bone marrow.

[2] = test system: mouse model of glioma GL261; assay: Kaplan Meier survival analysis, mouse model of glioma GL261; type: in vivo; details: n=10 per group; vehicle median 19 days; Log Rank p=0.016
Procedure: as §1
The median survival times for vehicle-treated mice (n=10) was 19 days whereas ibudilast-treated mice (n=10) were undetermined at this point (Log Rank p=0.016, […]) (FIG. 14).

[3] = test system: GL261; assay: In vitro treatment of co-culture for 24 h, MCP-1 (CCL2) secretion; type: cell-based, mouse; details: co-culture treated 24 h in vitro
[4] = in vivo, cited from earlier work
[5] = test system: M-MDSCs; assay: MDSC generation in co-cultures with MIF inhibitors quantified by flow cytometry; type: cell-based, mouse; details: GL261/bone marrow co-culture
Procedure: (§2) MDSCs were prepared through a co-culture process illustrated in FIG. 1. Glioma cell line GL261 is cultured together with freshly isolated bone marrow for 4 days. During this 4-day process the glioma cell line initiates subsets of the naïve monocytes within the bone marrow to become both monocytic MDSCs (M-MDSCs) and granulocytic MDSCs (G-MDSCs) distinguished via flow cytometry using CD11b, Ly6C, and GR1. The GR1+ population was harvested at day 4 via magnetic bead separation. Once isolated the MDSCs were combined with freshly isolated splenic T-cells which were labeled with CFSE and activated using CD3/28 activation beads. The T-cell proliferation was then determined 3 days after being combined with MDSCs by measuring the fluorescence intensity of each CD3 T-cell after 3 days of being cultured with MDSCs (FIG. 2).

[6] = test system: MDSCs; assay: T-cell proliferation in the presence of ibudilast-treated MDSCs from GL261/bone marrow co-culture; type: cell-based, mouse; details: CFSE-labeled CD3/28-activated splenic T-cells, 3 days with MDSCs; n=6 mice, 2 experiments, P=0.001
Procedure: as §2

[7] = test system: MIF/CD74 signaling pathway; assay: mRNA expression of CD45+ cells isolated from vehicle- and ibudilast-treated tumors; type: in vivo, mouse; details: n=3 per group
Procedure: as §1
Further analysis was conducted on the mRNA expression of CD45+ cells isolated from vehicle- and ibudilast-treated tumors.

[8] = test system: MCP-1; assay: Serum cytokine analysis at day 19 of treated GL261 mice; type: in vivo, mouse; details: day 19, 3 animals per group
Procedure: as §1

Structure (SMILES): CC(N)C(=O)c1c(C(C)C)nn2ccccc12 (centres unmarked) [AV1013]
- monocytic MDSCs (M-MDSCs) in the tumor [1]: no significant suppression

Structure (SMILES): CC(C)C(=O)c1c(C(C)C)nn2ccccc12 [ibudilast, 3-isobutyryl-2-isopropylpyrazolo(1,5-a)pyridine]
- survival versus vehicle [2]: Significant survival advantages
- secretion of MCP-1 (CCL2) [3]: reduced GLP261 secretion MCP-1 (CCL2) in a dose-dependent manner; also recorded: reduced GL261 secretion of MCP-1(ccl2) in a dose dependent manner
- CNS distribution / penetration [4]: good CNS penetration
- CNS distribution / penetration ([4]; listed as Ibudilast): distributes well to the CNS
- CD8 T-cells ([1]; 50 mg/kg i.p. daily, FIG. 7): decreased
- CD4 T-cells ([1]; 50 mg/kg i.p. daily, FIG. 8): increased
- monocytic MDSCs (M-MDSCs) in the blood ([1]; blood, 50 mg/kg i.p. daily from day 5, 50 mg/kg): not altered; also recorded: not M-MDSCs associated with blood, spleen or bone marrow
- monocytic MDSCs (M-MDSCs) in the marrow ([1]; bone marrow, 50 mg/kg i.p. daily from day 5, 50 mg/kg): not altered; also recorded: not M-MDSCs associated with blood, spleen or bone marrow
- monocytic MDSCs (M-MDSCs) in the spleen ([1]; spleen, 50 mg/kg i.p. daily from day 5, 50 mg/kg): not altered; also recorded: not M-MDSCs associated with blood, spleen or bone marrow
- immune suppressive T-regulatory cells ([1]; tumor vs blood, marrow, spleen, 50 mg/kg i.p. daily): reduced only in the tumors
- monocytic MDSCs (M-MDSCs) in the tumor ([1]; 50 mg/kg): reduced; also recorded: reduces M-MDSCs associated with tumor
- M-MDSC generation [5]: ability to reduce M-MDSC generation
- suppressive abilities of MDSCs on T-cell proliferation [6]: effectively reduced the suppressive abilities of MDSCs
- CCR2 mRNA expression [7]: significantly reduced
- CD74 mRNA expression [7]: significantly reduced
- MCP-1 (CCL2) mRNA expression [7]: significantly reduced
- MIF mRNA expression [7]: not reduced
- myeloid genes mRNA expression [7]: Overall reductions
- serum MCP-1 level [8]: reduction
